Results as given in PubChem BioAssay (NCI).
Values joined by “and” are separate entries in the source; they are usually repeats but may differ in a detail not shown here. Equal entries are not always repeated.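 1) Cells in 96-well plates. 2) Compound, 48 h, 5 concentrations. 3) Linear interpolation between surrounding doses. 4) Unreached endpoint = highest concentration. GI50 = concentration required for 50% inhibition of growth. At the TGI there is no net growth.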

Tests used:
Assay in all cases: growth of human tumour cells (NCI), 48 h
[1] = system: OVCAR-3 ovarian
[2] = system: HCT-116 colon
[3] = system: MALME-3M melanoma
[4] = system: OVCAR-5 ovarian
[5] = system: M14 melanoma
[6] = system: NCI-H226 lung
[7] = system: UO-31 renal
[8] = system: OVCAR-8 ovarian
[9] = system: SR leukemia
[10] = system: SNB-19 CNS

Row | SMILES | TGI [1] | TGI [2] | TGI [3] | TGI [4] | TGI [5] | TGI [6] | TGI [7] | TGI [8] | TGI [9] | TGI [10] | GI50 [1] [nM] | GI50 [2] [nM] | GI50 [3] | GI50 [4] [µM] | GI50 [5] [nM] | GI50 [6] | GI50 [7] | GI50 [8] | GI50 [9] | GI50 [10]
1 | O=C(O)c1ccccc1C(=O)c1ccco1 | > 100 µM | > 100 µM | > 100 µM | > 100 µM | > 100 µM | > 100 µM | > 100 µM | > 100 µM | > 100 µM | > 100 µM |  |  |  |  |  |  |  |  |  | 
2 | CC(C)(C)O/N=C/c1cc(NC(=S)c2ccccc2)ccc1Cl | 35.3 µM | 29.4 µM | 40.6 µM | 69.7 µM | 54.1 µM | 34.7 µM | 31.6 µM | 35.6 µM | 47.2 µM | 63.8 µM |  |  |  |  |  |  |  |  |  | 
3 | Cc1ccc(C(=O)Nc2ccc(Oc3cc4cnn(C)c4cc3-c3cn[nH]c3)c(F)c2)c(=O)n1-c1ccc(F)cc1 | > 100 µM | > 100 µM | > 100 µM | > 100 µM | > 100 µM | > 100 µM | > 100 µM | > 100 µM | > 100 µM | > 100 µM | > 100000 | 6310 | 3350 nM | 10.9 | 2960 | 2160 nM | > 100000 nM | 48800 nM | > 38800 nM | > 100000 nM
4 | CCN(CC)CCNc1n[n+]([O-])c2cc([N+](=O)[O-])ccc2[n+]1[O-] | 3.15 µM and 3.02 µM and 3.73 µM | 2.79 µM and 2.39 µM and 2.3 µM | 1.85 µM and 1.38 µM and 1.15 µM | 4.45 µM and 3.44 µM and 4.33 µM | 2.17 µM and 2.63 µM and 2.02 µM | 8.82 µM and 7.74 µM and 7.8 µM | 15.3 µM and 10.8 µM and 10.9 µM | 1.99 µM and 1.7 µM and 1.53 µM | 1.75 µM and 0.958 µM and 0.754 µM | 6.34 µM and 6.43 µM and 5.58 µM |  |  | 571 nM and 306 nM and 144 nM |  |  |  |  |  | 398 nM and 188 nM and 123 nM | 
5 | Nc1nc(-c2ccccc2)c(CC(=O)O)s1 | > 100 µM | > 100 µM | > 100 µM | > 100 µM | > 100 µM | > 100 µM | > 100 µM | > 100 µM | > 100 µM | > 100 µM |  |  |  |  |  |  |  |  |  | 
6 | O=C(Nc1nc2ccc(S(=O)(=O)Nc3ccc(C4(C(F)(F)F)CC4)cc3)cc2[nH]1)c1cnccn1 | 10.1 µM | 15.9 µM | 15.5 µM | 19.5 µM | 11.1 µM | 9.51 µM | 13.9 µM | 31.8 µM | 2.96 µM | 22 µM | 417 | 1660 | 1660 nM | 5.52 | 1120 | 2080 nM | 3020 nM | 5510 nM | 359 nM | 4240 nM
7 | C/C(=N\NC(=S)N1CCC1)c1ccccn1 |  | 52.2 µM | 7.65 µM | 49.9 µM | 1.84 µM | 3.48 µM | 15.3 µM | 12 µM |  | > 100 µM | 1.57 | 2.78 | 10.1 nM | 0.00689 | 22.9 | 11.7 nM | 18.8 nM | 7.15 nM | 8.19 nM | 
8 | Nc1ncnc2c1c(-c1ccc(Oc3ccccc3)cc1)nn2CC1SSCC1O (stereo unspecified) | 1.62 µM | 4.65 µM | 3.78 µM | 28.8 µM | 0.121 µM | 9.91 µM | 5.88 µM | 23.3 µM | 2.11 µM | 13 µM | 659 | 590 | 847 nM | 7.2 | 60.9 | 3700 nM | 1220 nM | 7510 nM | 251 nM | 5510 nM
9 | O=C(CI)NC(=O)NC(=O)NCc1ccccc1 | 3.37 µM | 12.6 µM | 3.52 µM | 10.8 µM | 10.8 µM | 20.4 µM | 3.31 µM | 19.6 µM | 3.1 µM | 31.9 µM | 1820 | 3390 | 1570 nM | 2.98 | 2890 | 4530 nM | 1660 nM | 4320 nM | 804 nM | 13000 nM
10 | N#CN1CC[C@H](C(=O)Nc2ncc(-c3ccccc3)s2)C1 | 1.44 µM | 2.18 µM | 1.42 µM | > 100 µM | 2.22 µM | 4.19 µM | 5.36 µM | 6.46 µM | 1.29 µM | 11.3 µM | 346 | 323 | 232 nM | 1.39 | 495 | 693 nM | 549 nM | 450 nM | 222 nM | 1110 nM
11 | CC(C)N(C(=O)C12C3C4C1C1C4(C#N)C3C12C(=O)O)C(C)C (stereo unspecified) | > 100 µM | > 100 µM | > 100 µM | > 100 µM | > 100 µM | > 100 µM | > 100 µM | > 100 µM | 41.4 µM | > 100 µM |  |  |  |  |  |  |  |  |  | 
12 | CCc1ccc(Oc2c(-c3ccc(OCc4ccc(Cl)cc4)cc3O)nn(C)c2C(F)(F)F)cc1 | 1.13 µM | 1.1 µM | 2.6 µM | 3.85 µM | 2.68 µM | 3.6 µM | 1.63 µM | 3.79 µM | 3.76 µM | 2.14 µM | 334 | 259 | 1140 nM | 1.75 | 1170 | 1180 nM | 432 nM | 1350 nM | 502 nM | 591 nM
13 | CC[n+]1c(-c2ccccc2)c2cc(N)ccc2c2ccc(N)cc21 | 9.84 µM and 20.4 µM and 15 µM | 12.7 µM and 25.3 µM and 26.6 µM | 2.9 µM and 6.43 µM | 57.6 µM and > 100 µM | 16.6 µM and 44.5 µM | 4.55 µM and 5.64 µM and 13.5 µM | > 100 µM | 12.2 µM and 16.2 µM and 33.2 µM | > 100 µM and 13 µM |  | 1610 | 1710 | 631 nM | 5.67 | 3840 | 504 nM and 723 nM and 2650 nM | 21400 nM and 86900 nM and 27200 nM | 695 nM and 1370 nM and 2940 nM | 801 nM and 1690 nM and 4080 nM | 368 nM and 502 nM and 1430 nM
14 | O=[N+]([O-])/C=C/c1ccc2ccccc2c1 | > 100 µM |  | 33.9 µM | > 30.1 µM | > 23.7 µM | 21.3 µM | 35.1 µM | > 21.2 µM | > 100 µM | 5.13 µM |  |  |  |  |  |  |  |  |  | 
15 | CCC(Oc1ccc(OC)c2c1C(=O)CCC2)C(=O)O (stereo unspecified) | > 100 µM |  | > 100 µM | > 100 µM | > 100 µM | > 100 µM | > 100 µM | > 100 µM | > 100 µM | > 100 µM |  |  |  |  |  |  |  |  |  | 
